Measured values: PubChem BioAssay (NCI)
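GI50 = concentration required for 50% inhibition of growth. TGI: total growth inhibition.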

Columns and labels:
Experiment in all cases: inhibition of tumour cell growth, NCI panel, 384-well format
K-562 leukemia = system: K-562 leukemia
SN12C renal = system: SN12C renal
NCI/ADR-RES ovarian = system: NCI/ADR-RES ovarian
OVCAR-8 ovarian = system: OVCAR-8 ovarian
NCI-H23 lung = system: NCI-H23 lung
OVCAR-3 ovarian = system: OVCAR-3 ovarian
NCI-H322M lung = system: NCI-H322M lung
KM12 colon = system: KM12 colon
TK-10 renal = system: TK-10 renal
COLO 205 colon = system: COLO 205 colon
MOLT-4 leukemia = system: MOLT-4 leukemia
SK-MEL-5 melanoma = system: SK-MEL-5 melanoma
MDA-MB-435 melanoma = system: MDA-MB-435 melanoma
A549 NSCLC = system: A549 NSCLC
NCI-H460 NSCLC = system: NCI-H460 NSCLC
HCT-15 colon = system: HCT-15 colon
UACC-62 melanoma = system: UACC-62 melanoma
SW-620 colon = system: SW-620 colon
NCI-H226 lung = system: NCI-H226 lung
HCT-116 colon = system: HCT-116 colon
SK-MEL-2 melanoma = system: SK-MEL-2 melanoma
IGROV1 ovarian = system: IGROV1 ovarian
MCF7 breast = system: MCF7 breast
SK-OV-3 ovarian = system: SK-OV-3 ovarian
LOX IMVI melanoma = system: LOX IMVI melanoma
MALME-3M melanoma = system: MALME-3M melanoma
OVCAR-5 ovarian = system: OVCAR-5 ovarian
HOP-62 NSCLC = system: HOP-62 NSCLC
DU-145 prostate = system: DU-145 prostate
HL-60(TB) leukemia = system: HL-60(TB) leukemia
ACHN renal = system: ACHN renal
HT29 colon = system: HT29 colon
HCC-2998 colon = system: HCC-2998 colon
SNB-19 CNS = system: SNB-19 CNS
RXF 393 renal = system: RXF 393 renal
U251 glioblastoma = system: U251 glioblastoma
M14 melanoma = system: M14 melanoma
786-0 renal = system: 786-0 renal
MDA-MB-468 breast = system: MDA-MB-468 breast
NCI-H522 lung = system: NCI-H522 lung
SR leukemia = system: SR leukemia
SF-539 CNS = system: SF-539 CNS
SF-268 CNS = system: SF-268 CNS
SF-295 CNS = system: SF-295 CNS
CCRF-CEM leukemia = system: CCRF-CEM leukemia
BT-549 breast = system: BT-549 breast
T-47D breast = system: T-47D breast
CAKI-1 renal = system: CAKI-1 renal
UO-31 renal = system: UO-31 renal
RPMI-8226 leukemia = system: RPMI-8226 leukemia
UACC-257 melanoma = system: UACC-257 melanoma
PC-3 prostate = system: PC-3 prostate
SK-MEL-28 melanoma = system: SK-MEL-28 melanoma
OVCAR-4 ovarian = system: OVCAR-4 ovarian
MDA-MB-231 breast = system: MDA-MB-231 breast
HOP-92 NSCLC = system: HOP-92 NSCLC
A498 renal = system: A498 renal

## COc1cc2c(Oc3ccc(-c4cnc(Nc5ccc(F)cc5)n(C)c4=O)cc3F)ccnc2cc1OCCCN1CCOCC1
K-562 leukemia
  GI50: 10.7 nM
  TGI: 23.4 nM
SN12C renal
  GI50: 247 nM
  TGI: 1290 nM
NCI/ADR-RES ovarian
  GI50: 1180 nM
  TGI: 2410 nM
OVCAR-8 ovarian
  GI50: 1310 nM
  TGI: 2590 nM
NCI-H23 lung
  GI50: 237 nM
  TGI: 1350 nM
OVCAR-3 ovarian
  GI50: 804 nM
  TGI: 2040 nM
NCI-H322M lung
  GI50: 761 nM
  TGI: 2020 nM
KM12 colon
  TGI: 308 nM
TK-10 renal
  GI50: 1160 nM
  TGI: 2400 nM
COLO 205 colon
  GI50: 227 nM
  TGI: 761 nM
MOLT-4 leukemia
  GI50: 150 nM
  TGI: 369 nM
SK-MEL-5 melanoma
  GI50: 329 nM
  TGI: 1500 nM
MDA-MB-435 melanoma
  GI50: 384 nM
  TGI: 1390 nM
A549 NSCLC
  GI50: 572 nM
  TGI: 1800 nM
NCI-H460 NSCLC
  GI50: 526 nM
  TGI: 1790 nM
HCT-15 colon
  GI50: 792 nM
  TGI: 2030 nM
UACC-62 melanoma
  GI50: 288 nM
  TGI: 1250 nM
SW-620 colon
  GI50: 509 nM
  TGI: 1880 nM
NCI-H226 lung
  GI50: 476 nM
  TGI: 1570 nM
HCT-116 colon
  GI50: 704 nM
  TGI: 2000 nM
SK-MEL-2 melanoma
  GI50: 495 nM
  TGI: 1510 nM
IGROV1 ovarian
  GI50: 368 nM
  TGI: 1470 nM
MCF7 breast
  GI50: 441 nM
  TGI: 1620 nM
SK-OV-3 ovarian
  GI50: 680 nM
  TGI: 1990 nM
LOX IMVI melanoma
  GI50: 402 nM
  TGI: 1450 nM
MALME-3M melanoma
  GI50: 140 nM
  TGI: 453 nM
OVCAR-5 ovarian
  GI50: 811 nM
  TGI: 2050 nM
HOP-62 NSCLC
  GI50: 1310 nM
  TGI: 2590 nM
DU-145 prostate
  GI50: 1470 nM
  TGI: 2800 nM
HL-60(TB) leukemia
  GI50: 268 nM
  TGI: 1130 nM
ACHN renal
  GI50: 313 nM
  TGI: 1460 nM
HT29 colon
  GI50: 275 nM
  TGI: 1200 nM
HCC-2998 colon
  GI50: 1170 nM
  TGI: 2400 nM
SNB-19 CNS
  GI50: 1260 nM
  TGI: 2520 nM
RXF 393 renal
  GI50: 189 nM
  TGI: 541 nM
U251 glioblastoma
  GI50: 1140 nM
  TGI: 2360 nM
M14 melanoma
  GI50: 248 nM
  TGI: 814 nM
786-0 renal
  GI50: 1240 nM
  TGI: 2490 nM
MDA-MB-468 breast
  GI50: 1540 nM
  TGI: 2870 nM
NCI-H522 lung
  GI50: 1040 nM
  TGI: 2210 nM
SR leukemia
  GI50: 513 nM
  TGI: 1680 nM
SF-539 CNS
  GI50: 257 nM
  TGI: 1150 nM
SF-268 CNS
  GI50: 1160 nM
  TGI: 2390 nM
SF-295 CNS
  GI50: 439 nM
  TGI: 1640 nM
CCRF-CEM leukemia
  GI50: 1070 nM
  TGI: 2260 nM
BT-549 breast
  GI50: 684 nM
  TGI: 1870 nM
T-47D breast
  GI50: 1070 nM
  TGI: 2260 nM
CAKI-1 renal
  GI50: 368 nM
  TGI: 1410 nM
UO-31 renal
  GI50: 409 nM
  TGI: 1430 nM
RPMI-8226 leukemia
  GI50: 545 nM
  TGI: 1740 nM
UACC-257 melanoma
  GI50: 252 nM
  TGI: 1090 nM
PC-3 prostate
  GI50: 1520 nM
  TGI: 2860 nM
SK-MEL-28 melanoma
  GI50: 258 nM
  TGI: 923 nM
OVCAR-4 ovarian
  GI50: 1110 nM
  TGI: 2320 nM
MDA-MB-231 breast
  GI50: 748 nM
  TGI: 2030 nM
HOP-92 NSCLC
  GI50: 76.4 nM
  TGI: 452 nM
A498 renal
  GI50: 1240 nM
  TGI: 2500 nM
